# Measurements from patent publication US9708293B2, “N-(pyridin-2-yl)pyrimidin-4-amine derivatives containing a sulfone group” (BAYER PHARMA AKTIENGESELLSCHAFT, priority 2012, dated 2017).
# What was measured:
# [1] = biological target: T1, CDK9/CycT1 (Homo sapiens, UniProt P50750); experiment: CDK9/CycT1 high ATP kinase assay (Method 1b); format: biochemical; details: 2 mM ATP
# T1 construct: Recombinant full-length His-tagged human CDK9 and CycT1; His; purchased Invitrogen PV4131; host or cells: insect cells
# Description: 1b. CDK9/CycT1 High ATP Kinase Assay
# CDK9/CycT1-inhibitory activity of compounds of the present invention at a high ATP concentration after preincubation of enzyme and test compounds was quantified employing the CDK9/CycT1 TR-FRET assay as described in the following paragraphs.
# Recombinant full-length His-tagged human CDK9 and CycT1, expressed in insect cells and purified by Ni-NTA affinity chromatography, were purchase from Invitrogen (Cat. No PV4131). As substrate for the kinase reaction biotinylated peptide biotin-Ttds-YISPLKSPYKISEG (C-terminus in amid form) was used which can be purchased e.g. form the company JERINI peptide technologies (Berlin, Germany). For the assay 50 n1 of a 100 fold concentrated solution of the test compound in DMSO was pipetted into a black low volume 384 well microtiter plate (Greiner Bio-One, Frickenhausen, Germany), 2 μl of a solution of CDK9/CycT1 in aqueous assay buffer [50 mM Tris/HCl pH 8.0, 10 mM MgCl2, 1.0 mM dithiothreitol, 0.1 mM sodium ortho-vanadate, 0.01% (v/v) Nonidet-P40 (Sigma)] were added and the mixture was incubated for 15 min at 22° C. to allow pre-binding of the test compounds to the enzyme before the start of the kinase reaction. Then the kinase reaction was started by the addition of 3 μl of a solution of adenosine-tri-phosphate (ATP, 3.3 mM=>final conc. in the 5 μl assay volume is 2 mM) and substrate (1.67 μM=>final conc. in the 5 μl assay volume is 1 μM) in assay buffer and the resulting mixture was incubated for a reaction time of […] at 22° C. The concentration of CDK9/CycT1 was adjusted depending of the activity of the enzyme lot and was chosen appropriate to have the assay in the linear range, typical concentrations were in the range of 0.5 μg/mL. The reaction was stopped by the addition of 5 μl of a solution of TR-FRET detection reagents (0.2 μM streptavidine-XL665 [Cisbio Bioassays, Codolet, France] and 1 nM anti-RB(pSer807/pSer811)-antibody from BD Pharmingen [#558389] and 1.2 nM LANCE EU-W1024 labeled anti-mouse IgG antibody [Perkin-Elmer, product no. AD0077]) in an aqueous EDTA-solution (100 mM EDTA, 0.2% (w/v) bovine serum albumin in 100 mM HEPES/NaOH pH 7.0).
# The resulting mixture was incubated 1 h at 22° C. to allow the formation of complex between the phosphorylated biotinylated peptide and the detection reagents. Subsequently the amount of phosphorylated substrate was evaluated by measurement of the resonance energy transfer from the Eu-chelate to the streptavidine-XL. Therefore, the fluorescence emissions at 620 nm and 665 nm after excitation at 350 nm was measured in a HTRF reader, e.g. a Rubystar (BMG Labtechnologies, Offenburg, Germany) or a Viewlux (Perkin-Elmer). The ratio of the emissions at 665 nm and at […] was taken as the measure for the amount of phosphorylated substrate. […]
# [2] = system: HeLa cells; experiment: Proliferation assay, HeLa; format: cell-based; details: Homo sapiens, 96 h, 4 days, crystal violet, read-out: Inhibition of HeLa cell proliferation IC50
# Description: Cultivated tumour cells (HeLa, human cervical tumour cells, ATCC CCL-2; NCI-H460, human non-small cell lung carcinoma cells, ATCC HTB-177; A2780, human ovarian carcinoma cells, ECACC #93112519; DU 145, hormone-independent human prostate carcinoma cells, ATCC HTB-81; HeLa-MaTu-ADR, multidrug-resistant human cervical carcinoma cells, EPO-GmbH Berlin; Caco-2, human colorectal carcinoma cells, ATCC HTB-37; B16F10, mouse melanoma cells, ATCC CRL-6475) were plated at a density of 5,000 cells/well (DU145, HeLa-MaTu-ADR), 3,000 cells/well (NCI-H460, HeLa), 2,500 cells/well (A2780), 1,500 cells/well (Caco-2), or 1,000 cells/well (B16F10) in a 96-well multititer plate in 200 μL of their respective growth medium supplemented 10% fetal calf serum. After 24 hours, the cells of one plate (zero-point plate) were stained with crystal violet (see below), while the medium of the other plates was replaced by fresh culture medium (200 μl), to which the test substances were added in various concentrations (0 μM, as well as in the range of 0.001-10 μM; the final concentration of the solvent dimethyl sulfoxide was 0.5%). The cells were incubated for 4 days in the presence of test substances. Cell proliferation was determined by staining the cells with crystal violet: the cells were fixed by adding 20 μl/measuring point of an 11% glutaric aldehyde solution for 15 minutes at room temperature. After three washing cycles of the fixed cells with water, the plates were dried at room temperature. The cells were stained by adding 100 μl/measuring point of a 0.1% crystal violet solution (pH 3.0). After three washing cycles of the stained cells with water, the plates were dried at room temperature. The dye was dissolved by adding 100 μl/measuring point of a 10% acetic acid solution. The extinction was determined by photometry at a wavelength of 595 nm. The change of cell number, in percent, was calculated by normalization of the measured values to the extinction values of the zero-point plate (=0%) and the extinction of the untreated (0 μm) cells (=100%). […]
# T1 sequence (P50750 whole entry): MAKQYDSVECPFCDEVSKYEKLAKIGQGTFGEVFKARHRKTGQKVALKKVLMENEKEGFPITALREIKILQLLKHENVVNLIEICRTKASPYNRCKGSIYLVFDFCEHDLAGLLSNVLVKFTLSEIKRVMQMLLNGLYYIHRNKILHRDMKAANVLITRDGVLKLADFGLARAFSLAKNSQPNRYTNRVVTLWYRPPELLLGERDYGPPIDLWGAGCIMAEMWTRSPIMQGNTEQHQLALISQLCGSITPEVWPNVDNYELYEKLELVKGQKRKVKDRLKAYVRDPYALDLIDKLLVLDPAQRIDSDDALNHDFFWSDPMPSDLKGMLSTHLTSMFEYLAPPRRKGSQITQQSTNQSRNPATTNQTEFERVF
# T1 sequence (O60563 whole entry partner): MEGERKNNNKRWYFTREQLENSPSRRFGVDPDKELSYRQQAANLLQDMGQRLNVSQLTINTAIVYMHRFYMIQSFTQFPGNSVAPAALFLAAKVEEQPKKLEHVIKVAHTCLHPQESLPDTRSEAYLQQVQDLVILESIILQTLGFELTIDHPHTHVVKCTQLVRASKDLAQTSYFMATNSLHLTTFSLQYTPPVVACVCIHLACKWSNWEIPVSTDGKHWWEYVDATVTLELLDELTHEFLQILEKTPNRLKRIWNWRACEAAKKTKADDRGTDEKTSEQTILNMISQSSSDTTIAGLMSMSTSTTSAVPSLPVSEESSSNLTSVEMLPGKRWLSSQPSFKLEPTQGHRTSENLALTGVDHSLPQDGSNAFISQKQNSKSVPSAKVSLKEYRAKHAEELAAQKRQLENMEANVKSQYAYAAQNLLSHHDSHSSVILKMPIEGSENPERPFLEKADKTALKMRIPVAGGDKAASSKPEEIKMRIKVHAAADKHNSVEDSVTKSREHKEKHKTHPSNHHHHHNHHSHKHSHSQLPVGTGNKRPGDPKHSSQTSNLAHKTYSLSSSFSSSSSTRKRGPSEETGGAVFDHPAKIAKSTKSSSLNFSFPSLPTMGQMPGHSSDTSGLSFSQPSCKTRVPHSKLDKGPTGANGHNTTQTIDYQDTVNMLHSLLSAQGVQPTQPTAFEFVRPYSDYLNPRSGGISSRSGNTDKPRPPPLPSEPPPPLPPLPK
SMILES,IC50 [1] [nM],IC50 [2] [nM]
"COc1cc(F)ccc1-c1cc(Nc2cc(CS(C)(=O)=O)ccn2)ncn1 [Example 1, 6-(4-Fluoro-2-methoxyphenyl)-N-{4-[(methylsulfonyl)methyl]pyridin-2-yl}pyrimidin-4-amine]",16,101
"COc1cc(F)ccc1-c1cc(Nc2cc(CS(C)(=O)=O)cc(C(F)(F)F)n2)ncn1 [Example 3, 6-(4-Fluoro-2-methoxyphenyl)-N-{4-[(methylsulfonyl)methyl]-6-(trifluoromethyl)pyridin-2-yl}pyrimidin-4-amine]",2,24
"COc1cc(F)ccc1-c1cc(Nc2cc(CS(C)(=O)=O)cc(F)n2)ncn1 [Example 4, 6-(4-Fluoro-2-methoxyphenyl)-N-{6-fluoro-4-[(methylsulfonyl)methyl]pyridin-2-yl}pyrimidin-4-amine]",11,
"COc1cc(F)ccc1-c1cc(Nc2cc(CS(C)(=O)=O)cc(C)n2)ncn1 [Example 2, 6-(4-Fluoro-2-methoxyphenyl)-N-{6-methyl-4-[(methylsulfonyl)methyl]pyridin-2-yl}pyrimidin-4-amine]",2,76
